This is an account of results in ChEMBL document CHEMBL5046234, “Discovery of novel TrkA allosteric inhibitors: Structure-based virtual screening, biological evaluation and preliminary SAR studies” (Eur J Med Chem, 2022).

In experiment [1] the test system is BaF3. Kind of experiment: Antiproliferative activity against mouse BaF3 cells expressing CD74 fused TRKA assessed as cell growth inhibition incubated for 72 hrs by CCK8 assay. The class given is functional, cell-based. As to conditions: BaF3, 72 h.
The target in experiment [2] is High affinity nerve growth factor receptor (Homo sapiens) (UniProt P04629). Kind of experiment: Inhibition of CD74 fused TRKA (unknown origin) autophosphorylation expressed in mouse BaF3 cells by western blot analysis. As to conditions: dose 0.08-50 µM. It counts as cell-based.
Sequence of High affinity nerve growth factor receptor (Homo sapiens) (P04629 33-796 limits assumed): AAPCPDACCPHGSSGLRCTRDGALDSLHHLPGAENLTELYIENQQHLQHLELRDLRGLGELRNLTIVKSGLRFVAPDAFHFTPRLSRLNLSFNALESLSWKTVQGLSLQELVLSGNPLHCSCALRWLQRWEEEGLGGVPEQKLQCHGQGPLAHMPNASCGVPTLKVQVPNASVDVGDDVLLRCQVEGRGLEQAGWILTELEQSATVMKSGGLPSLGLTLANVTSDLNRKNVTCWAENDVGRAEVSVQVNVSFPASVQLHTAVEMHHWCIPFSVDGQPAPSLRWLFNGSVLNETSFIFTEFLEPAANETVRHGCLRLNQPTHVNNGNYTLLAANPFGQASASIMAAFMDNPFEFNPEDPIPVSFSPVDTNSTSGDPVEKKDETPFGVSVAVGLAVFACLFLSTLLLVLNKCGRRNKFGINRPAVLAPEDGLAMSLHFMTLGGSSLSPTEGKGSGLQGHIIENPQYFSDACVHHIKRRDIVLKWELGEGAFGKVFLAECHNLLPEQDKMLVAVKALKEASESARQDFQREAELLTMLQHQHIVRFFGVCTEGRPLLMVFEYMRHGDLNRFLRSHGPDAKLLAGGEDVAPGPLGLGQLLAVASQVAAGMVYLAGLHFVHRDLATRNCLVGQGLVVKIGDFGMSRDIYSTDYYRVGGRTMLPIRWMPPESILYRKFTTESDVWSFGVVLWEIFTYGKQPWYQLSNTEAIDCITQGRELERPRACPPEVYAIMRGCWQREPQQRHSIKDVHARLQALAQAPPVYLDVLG
Experiment [3] has the same target. Kind of experiment: Inhibition of CD74 fused TRKA (unknown origin) expressed in mouse BaF3 cells assessed as inhibition of PLCgamma1 phosphorylation by western blot analysis. The class given is cell-based. As to conditions: dose 0.08-50 µM.
The test system of experiment [4] is BaF3. Kind of experiment: Antiproliferative activity against mouse BaF3 cells expressing QKI fused TRKB assessed as cell growth inhibition incubated for 72 hrs by CCK8 assay. It counts as functional, cell-based. As to conditions: BaF3, 72 h.
The test system of experiment [5] is BaF3. Kind of experiment: Antiproliferative activity against mouse BaF3 cells assessed as cell growth inhibition incubated for 72 hrs by CCK8 assay. As to conditions: BaF3, 72 h. The class given is functional, cell-based.
The test system of experiment [6] is BaF3. Briefly: Antiproliferative activity against mouse BaF3 cells expressing EML4 fused TRKC assessed as cell growth inhibition incubated for 72 hrs by CCK8 assay. The class given is functional, cell-based. As to conditions: BaF3, 72 h.
Experiment [7] concerns BaF3. Kind of experiment: Antiproliferative activity against mouse BaF3 cells expressing MPRIP fused TRKA assessed as cell growth inhibition incubated for 72 hrs by CCK8 assay. It counts as functional, cell-based. As to conditions: BaF3, 72 h.
Experiment [8] deals with High affinity nerve growth factor receptor (Homo sapiens) (UniProt P04629). Briefly: Inhibition of CD74 fused TRKA (unknown origin) expressed in mouse BaF3 cells assessed as inhibition of ERK phosphorylation by western blot analysis. It counts as cell-based.
The target is the same in experiment [9]. Kind of experiment: Inhibition of CD74 fused TRKA (unknown origin) expressed in mouse BaF3 cells assessed as inhibition of AKT phosphorylation by western blot analysis. The class given is cell-based. The note with it: dose 0.08-50 µM.
Experiment [10] deals with BDNF/NT-3 growth factors receptor (Homo sapiens, UniProt Q16620). Kind of experiment: Inhibition of TRKB (unknown origin) by PathHunter Enzyme Fragment Complementation assay.
Sequence of BDNF/NT-3 growth factors receptor (Q16620 whole entry, the tested form may be a part): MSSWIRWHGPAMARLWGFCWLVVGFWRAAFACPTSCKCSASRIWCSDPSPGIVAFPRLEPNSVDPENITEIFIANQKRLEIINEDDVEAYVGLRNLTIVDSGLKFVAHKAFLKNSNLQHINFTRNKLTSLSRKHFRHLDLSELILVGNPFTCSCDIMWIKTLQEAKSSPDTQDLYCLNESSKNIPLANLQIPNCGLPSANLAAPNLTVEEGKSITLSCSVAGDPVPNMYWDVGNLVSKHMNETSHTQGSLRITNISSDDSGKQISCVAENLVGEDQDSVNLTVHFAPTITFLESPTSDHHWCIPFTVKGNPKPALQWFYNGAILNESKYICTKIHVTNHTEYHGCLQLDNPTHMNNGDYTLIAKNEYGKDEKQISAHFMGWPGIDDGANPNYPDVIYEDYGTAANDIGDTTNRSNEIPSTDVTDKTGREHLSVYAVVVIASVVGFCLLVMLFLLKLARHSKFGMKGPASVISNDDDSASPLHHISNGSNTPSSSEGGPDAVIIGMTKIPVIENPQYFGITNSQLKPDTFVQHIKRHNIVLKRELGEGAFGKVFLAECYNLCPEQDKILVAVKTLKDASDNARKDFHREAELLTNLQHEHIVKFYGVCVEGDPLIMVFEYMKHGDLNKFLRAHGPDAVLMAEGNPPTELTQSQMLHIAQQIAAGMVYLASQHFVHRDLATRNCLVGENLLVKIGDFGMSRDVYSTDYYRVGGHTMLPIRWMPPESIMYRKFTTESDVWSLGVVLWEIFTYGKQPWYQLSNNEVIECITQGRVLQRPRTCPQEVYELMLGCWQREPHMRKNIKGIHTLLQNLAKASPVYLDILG

pIC50: −log10 of the molar value.

With `Cc1ccc(C(=O)Nc2ccc(N3CCN(C)CC3)nc2)cc1N1CCCC1=O`, in experiment [1], the pIC50 is 5.70.

For `CN1CCN(c2ccc(NC(=O)c3ccc(Cl)c(N4CCCC4=O)c3)cn2)CC1`, the pIC50 in experiment [1] was 5.81.

For the compound `CN1CCN(c2cc(-c3ccccc3)c(NC(=O)c3cc(N4CCCC4=O)c(Cl)cc3Cl)cn2)CC1`, the pIC50 in [1] is below 5.00.

Consider `Cc1ccc(C(=O)Nc2ccc(N3CCCC3=O)nc2)cc1N1CCCC1=O`, for which the pIC50 in experiment [1] was 5.14.

Take `Cc1ccc(C(=O)Nc2ccc(N3CCN(C4CCCC4)C3=O)nc2)cc1N1CCCC1=O`: the inhibition entry in experiment [2], in experiment [3], in experiment [8] and in [9] was “Dose-Dependent Effect” throughout. Moreover, the pIC50 was 5.21 in experiment [4]; below 5.00 in experiment [5]; below 5.00 in experiment [6]; 5.48 in [7]; 5.54 in [1].

Turning to `CN1CCN(c2ccc(NC(=O)c3cc(N4CCCC4=O)c(Cl)cc3Cl)cn2)CC1`, in [1], the pIC50 was 5.74.

In the case of `Cc1ncc(NC(=O)NC2c3ccccc3-c3ccccc32)c(-c2ccccc2)n1`, in experiment [10], the pIC50 is 4.09.
